The target of test [1] is T1, M1 muscarinic receptor (Homo sapiens, UniProt P11229).
T1 construct: expressed in transfected cells; host or cells: CHO (M1-CHO)
T1 sequence (P11229 1-460): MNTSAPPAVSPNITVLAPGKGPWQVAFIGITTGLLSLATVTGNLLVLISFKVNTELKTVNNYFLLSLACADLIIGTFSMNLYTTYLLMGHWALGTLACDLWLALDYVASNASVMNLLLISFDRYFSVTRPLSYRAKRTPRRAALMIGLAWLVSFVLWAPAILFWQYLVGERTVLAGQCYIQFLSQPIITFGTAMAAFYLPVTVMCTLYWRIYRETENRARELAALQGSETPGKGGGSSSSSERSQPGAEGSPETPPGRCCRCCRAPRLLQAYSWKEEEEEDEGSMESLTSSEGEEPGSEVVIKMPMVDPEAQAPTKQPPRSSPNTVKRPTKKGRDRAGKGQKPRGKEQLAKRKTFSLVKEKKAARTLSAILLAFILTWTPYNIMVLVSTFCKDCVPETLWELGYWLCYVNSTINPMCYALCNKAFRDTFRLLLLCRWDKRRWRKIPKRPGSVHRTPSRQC
Briefly: Functional mobilization of intracellular calcium (FLIPR), M1-CHO cells. It is filed as cell-based. The following applies: for Emax: 100% efficacy is the maximum response obtained using Carbachol as a control; for M1 Activity: M1-CHO cells, FLIPR calcium mobilization. A digest of the protocol: (§1)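 CHO cells expressing M1 or M4, loaded with Fluo-3 AM or Calcium 3 dye with 1 mM probenecid, 0.5% DMSO final. Agonist mode: compound added directly; antagonist mode: 15 min pre-incubation (or co-application) before carbachol at EC80. Fluorescence recorded 60 s on FLIPR.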

Test [2] concerns the target T2, M4 muscarinic receptor (Homo sapiens, UniProt P08173).
T2 construct: expressed in transfected cells; host or cells: CHO (M4-CHO)
T2 sequence (P08173 1-479): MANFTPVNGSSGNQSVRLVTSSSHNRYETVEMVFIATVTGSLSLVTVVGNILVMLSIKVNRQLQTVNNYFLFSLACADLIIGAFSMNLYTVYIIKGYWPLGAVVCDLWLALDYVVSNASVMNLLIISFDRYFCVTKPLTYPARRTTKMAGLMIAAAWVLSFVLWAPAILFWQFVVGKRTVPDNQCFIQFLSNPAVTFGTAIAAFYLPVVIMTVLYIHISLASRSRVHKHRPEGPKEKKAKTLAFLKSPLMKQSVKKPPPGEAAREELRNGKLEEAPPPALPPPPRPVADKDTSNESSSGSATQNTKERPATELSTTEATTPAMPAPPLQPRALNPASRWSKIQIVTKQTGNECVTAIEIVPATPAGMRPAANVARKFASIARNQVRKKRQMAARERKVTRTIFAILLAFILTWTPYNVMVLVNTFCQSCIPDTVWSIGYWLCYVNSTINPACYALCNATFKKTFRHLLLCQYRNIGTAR
Briefly: Functional mobilization of intracellular calcium (FLIPR), M4-CHO cells. It is filed as cell-based. The following applies: for Emax: 100% efficacy is the maximum response obtained using Carbachol as a control; for M4 Activity: M4-CHO cells, FLIPR calcium mobilization. A digest of the protocol: as §1

Counter-ions that a name gives are not always drawn.

Consider `CCOC(=O)N1C2CCC1CC(N1CCC3(CC1)CN(C(=O)c1cccs1)Cc1ccccc13)C2` (centres unmarked) [compound 146], for which, in test [1], the Emax lay in the range of 25 to 100% and the “M1 Activity” value was “+++ (activity was measured to be less than 1.0 μM)”. In test [2], the Emax fell in the range of 25 to 100% and the “M4 Activity” value is “+++ (activity was measured to be less than 1.0 μM)”.

With `CCOC(=O)N1CCC(CN2CCC3(CC2)CN(C(=O)c2ccccc2)Cc2ccccc23)CC1` [compound 147, Ethyl 4-((2-benzoyl-2,3-dihydro-1H-spiro[isoquinoline-4,4′-piperidine]-1′-yl)methyl)piperidine-1-carboxylate hydrochloride], in test [1], the Emax is 25 to 100% and the “M1 Activity” value is given as “+++ (activity was measured to be less than 1.0 μM)”. Besides, in test [2], the Emax was in the range of 25 to 100% and the “M4 Activity” value is given as “+++ (activity was measured to be less than 1.0 μM)”.

In the case of `CCCCOC(=O)N1Cc2ccccc2C2(CCN(C3CC4CCC(C3)N4C(=O)OCC)CC2)C1` (centres unmarked) [compound 148], in test [1], the Emax lay in the range of 25 to 100% and the “M1 Activity” value is reported as “+++ (activity was measured to be less than 1.0 μM)”. Also, in test [2], the Emax fell in the range of 25 to 100% and the “M4 Activity” value is “+++ (activity was measured to be less than 1.0 μM)”.

Take `CCOC(=O)N1C2CCC1CC(N1CCC3(CC1)CN(C(=O)c1cc(C)oc1C)Cc1ccccc13)C2` (centres unmarked) [compound 149]: in test [1], the Emax was less than 25% and the “M1 Activity” value was “+ (activity was measured to be greater than 5.0 μM)”. In test [2], the Emax lay in the range of 25 to 100% and the “M4 Activity” value is on record as “+++ (activity was measured to be less than 1.0 μM)”.

For the compound `COc1ccccc1CN1CCC2(CC1)CN(C(C)=O)Cc1ccccc12` [compound 150], in test [1], the maximal response (Emax) is less than 25% and the “M1 Activity” value is on record as “+ (activity was measured to be greater than 5.0 μM)”. Further, in test [2], the maximal response (Emax) is less than 25% and the “M4 Activity” value is on record as “+ (activity was measured to be greater than 5.0 μM)”.

`CCOC(=O)N1CCC(N2CCC3(CC2)CN(C(=O)c2ccccn2)Cc2ccccc23)CC1` [compound 151]: in test [1], the Emax lay in the range of 25 to 100% and the “M1 Activity” value is listed as “+++ (activity was measured to be less than 1.0 μM)”. Besides, in test [2], the Emax is 25 to 100% and the “M4 Activity” value is “+++ (activity was measured to be less than 1.0 μM)”.

With `CC(=O)N1Cc2ccccc2C2(CCN(Cc3ccccc3Cl)CC2)C1` [compound 152], in test [1], the Emax is less than 25% and the “M1 Activity” value is given as “+ (activity was measured to be greater than 5.0 μM)”. Besides, in test [2], the Emax lay within 25 to 100% and the “M4 Activity” value is reported as “++ (activity was measured to be from 1.0 μM to 5.0 μM)”.

As to `CC(=O)N1Cc2ccccc2C2(CCN(C3CCC(=O)CC3)CC2)C1` [compound 153], in test [1], the Emax lay within 25 to 100% and the “M1 Activity” value is recorded as “+ (activity was measured to be greater than 5.0 μM)”. Further, in test [2], the Emax lay within 25 to 100% and the “M4 Activity” value was “++ (activity was measured to be from 1.0 μM to 5.0 μM)”.

With `CC(C)OC(=O)N1C2CCC1CC(N1CCC3(CC1)CN(S(C)(=O)=O)Cc1ccccc13)C2` (centres unmarked) [compound 154], in test [1], the Emax fell in the range of 25 to 100% and the “M1 Activity” value is recorded as “+++ (activity was measured to be less than 1.0 μM)”. In addition, in test [2], the maximal response (Emax) was in the range of 25 to 100% and the “M4 Activity” value is listed as “+++ (activity was measured to be less than 1.0 μM)”.

`CCOC(=O)N1CCC(CN2CCC3(CC2)CN(S(=O)(=O)c2c(C)noc2C)Cc2ccccc23)CC1` [compound 155]: in test [1], the Emax was in the range of 25 to 100% and the “M1 Activity” value was “+++ (activity was measured to be less than 1.0 μM)”. Also, in test [2], the maximum response (Emax) fell in the range of 25 to 100% and the “M4 Activity” value is “+++ (activity was measured to be less than 1.0 μM)”.

With `C#CCOC(=O)N1C2CCC1CC(N1CCC3(CC1)CN(C(C)=O)Cc1ccccc13)C2` (centres unmarked) [compound 156], in test [1], the Emax is 25 to 100% and the “M1 Activity” value was “+++ (activity was measured to be less than 1.0 μM)”. In addition, in test [2], the Emax was in the range of 25 to 100% and the “M4 Activity” value is “+++ (activity was measured to be less than 1.0 μM)”.

With `COCCOC(=O)N1Cc2ccccc2C2(CCN(C3CC4CCC(C3)N4C(=O)OC(C)C)CC2)C1` (centres unmarked) [compound 157], in test [1], the Emax fell in the range of 25 to 100% and the “M1 Activity” value was “+++ (activity was measured to be less than 1.0 μM)”. In addition, in test [2], the Emax lay in the range of 25 to 100% and the “M4 Activity” value is recorded as “+++ (activity was measured to be less than 1.0 μM)”.

`COCCOC(=O)N1CCC(N2CCC3(CC2)CN(C(C)=O)Cc2ccccc23)CC1` [compound 158]: in test [1], the Emax lay in the range of 25 to 100% and the “M1 Activity” value is given as “+++ (activity was measured to be less than 1.0 μM)”. Besides, in test [2], the Emax was in the range of 25 to 100% and the “M4 Activity” value is given as “+++ (activity was measured to be less than 1.0 μM)”.

On to `CCOC(=O)N1C2CCC1CC(N1CCC3(CC1)CN(c1cccc(F)c1)Cc1ccccc13)C2` (centres unmarked) [compound 159], for which, in test [1], the Emax was greater than 100% and the “M1 Activity” value was “+++ (activity was measured to be less than 1.0 μM)”. Further, in test [2], the Emax was in the range of 25 to 100% and the “M4 Activity” value is recorded as “+++ (activity was measured to be less than 1.0 μM)”.

`CC(=O)N1Cc2ccccc2C2(CCN(CC3CCN(C(=O)OC(C)C)CC3)CC2)C1` [compound 161]: in test [1], the maximal effect (Emax) was in the range of 25 to 100% and the “M1 Activity” value is reported as “++ (activity was measured to be from 1.0 μM to 5.0 μM)”. Moreover, in test [2], the Emax was less than 25% and the “M4 Activity” value is given as “+++ (activity was measured to be less than 1.0 μM)”.

For the compound `CCOC(=O)N1C2CCC1CC(N1CCC3(CC1)CN(C(=O)CC(C)(C)C)Cc1ccccc13)C2` (centres unmarked) [compound 162], in test [1], the Emax was in the range of 25 to 100% and the “M1 Activity” value is “+++ (activity was measured to be less than 1.0 μM)”. Besides, in test [2], the Emax was in the range of 25 to 100% and the “M4 Activity” value is on record as “+++ (activity was measured to be less than 1.0 μM)”.

Consider `CCOC(=O)N1CCC(N2CCC3(CC2)CN(C(=O)NC2CCCCC2)Cc2ccccc23)CC1` [compound 163], for which, in test [1], the Emax was 25 to 100% and the “M1 Activity” value was “+++ (activity was measured to be less than 1.0 μM)”. For the same compound, in test [2], the Emax lay in the range of 25 to 100% and the “M4 Activity” value is reported as “+++ (activity was measured to be less than 1.0 μM)”.

For the compound `CCOC(=O)N1CCC(N2CCC3(CC2)CN(C(=O)OC2CCCC2)Cc2ccccc23)CC1` [compound 164], in test [1], the Emax was 25 to 100% and the “M1 Activity” value was “+++ (activity was measured to be less than 1.0 μM)”. In test [2], the Emax lay within 25 to 100% and the “M4 Activity” value is reported as “+++ (activity was measured to be less than 1.0 μM)”.

For the compound `CCOC(=O)N1CCC(N2CCC3(CC2)CN(C(=O)OC(C)C)Cc2ccccc23)CC1` [compound 166], in test [1], the Emax is 25 to 100% and the “M1 Activity” value is “+++ (activity was measured to be less than 1.0 μM)”. For the same compound, in test [2], the Emax is 25 to 100% and the “M4 Activity” value is reported as “+++ (activity was measured to be less than 1.0 μM)”.

On to `CCOC(=O)N1CCC(N2CCC3(CC2)CN(Cc2ccccc2)Cc2ccccc23)CC1` [compound 167], for which, in test [1], the maximal response (Emax) is 25 to 100% and the “M1 Activity” value is “++ (activity was measured to be from 1.0 μM to 5.0 μM)”. Moreover, in test [2], the Emax was less than 25% and the “M4 Activity” value was “+++ (activity was measured to be less than 1.0 μM)”.

Regarding `CCNC(=O)N1Cc2ccccc2C2(CCN(C3CCN(C(=O)OCC)CC3)CC2)C1` [compound 168], in test [1], the Emax lay within 25 to 100% and the “M1 Activity” value is “+++ (activity was measured to be less than 1.0 μM)”. In addition, in test [2], the Emax lay within 25 to 100% and the “M4 Activity” value was “+++ (activity was measured to be less than 1.0 μM)”.

Regarding `CC(=O)N1Cc2ccccc2C2(CCN(C3C4CC5CC(C4)CC3C5)CC2)C1` (centres unmarked) [compound 170], in test [1], the Emax is 25 to 100% and the “M1 Activity” value is reported as “+++ (activity was measured to be less than 1.0 μM)”. In test [2], the Emax was in the range of 25 to 100% and the “M4 Activity” value was “+++ (activity was measured to be less than 1.0 μM)”.

For the compound `CCOC(=O)N1CCC(CN2CCC3(CC2)CN(C(=O)Nc2c(C)noc2C)Cc2ccccc23)CC1` [compound 171], in test [1], the Emax lay in the range of 25 to 100% and the “M1 Activity” value is “+++ (activity was measured to be less than 1.0 μM)”. For the same compound, in test [2], the Emax was in the range of 25 to 100% and the “M4 Activity” value is reported as “+++ (activity was measured to be less than 1.0 μM)”.

Source of the values: US7863449B2, “Modulators of muscarinic receptors” (Vertex Pharmaceuticals Incorporated, priority 2004, dated 2011).
